Source: US20080171159A1, “METHOD FOR STORING A DRUG-LOADED SUPPORT” (priority 2007, published 2008)

Test: Vapor pressure at 25° C. by the Donovan method (gas chromatography)
Assay type: physicochemical
Experimental: The pyrethroid compound volatile at ambient temperature used in the present invention (hereinafter referred to as “the present active ingredient”) is a pyrethroid compound with a vapor pressure of about 6×10^−6 to about 1×10^−4 mm Hg at 25° C. when measured, for instance, by the method reported by Stephen F. Donovan (New method for estimating vapor pressure by use of gas chromatography, Journal of Chromatography A. 749(1996) 123-129, hereinafter referred to as “Donovan method”) and an ester compound represented by formula (I)
Specific examples of the present active ingredient are 2,3,5,6-tetrafluoro-4-methylbenzyl 3-(1-propenyl)-2,2-dimethylcyclopropanecarboxylate (7.7×10^−5 mm Hg), 2,3,5,6-tetrafluoro-4-methylbenzyl 3-(2-methyl-1-propenyl)-2,2-dimethylcyclopropanecarboxylate(3.1×10^−5 mm Hg), 2,3,5,6-tetrafluorobenzyl 3-(2,2-dichlorovinyl)-2,2-dimethylcyclopropanecarboxylate (2.6×10^−5 mm Hg), 2,3,5,6-tetrafluoro-4-methoxymethylbenzyl 3-(1-propenyl)-2,2-dimethylcyclopropanecarboxylate(1.4×10^-5 mm Hg), and 2,3,5,6-tetrafluoro-4-methoxymethylbenzyl 3-(2-methyl-1-propenyl)-2,2-dimethylcyclopropanecarboxylate(6.8×10^−6 mm Hg).
For `COCc1c(F)c(F)c(COC(=O)C2C(C=C(C)C)C2(C)C)c(F)c1F` (centres unmarked) [2,3,5,6-tetrafluoro-4-methoxymethylbenzyl 3-(2-methyl-1-propenyl)-2,2-dimethylcyclopropanecarboxylate], the vapor pressure was 6.8×10^−6 mm Hg. For `CC1(C)C(C=C(Cl)Cl)C1C(=O)OCc1c(F)c(F)cc(F)c1F` (centres unmarked) [2,3,5,6-tetrafluorobenzyl 3-(2,2-dichlorovinyl)-2,2-dimethylcyclopropanecarboxylate], the vapor pressure was 2.6×10^−5 mm Hg. With `CC=CC1C(C(=O)OCc2c(F)c(F)c(COC)c(F)c2F)C1(C)C` (centres unmarked) [2,3,5,6-tetrafluoro-4-methoxymethylbenzyl 3-(1-propenyl)-2,2-dimethylcyclopropanecarboxylate] the vapor pressure was 1.4×10^-5 mm Hg. For `CC=CC1C(C(=O)OCc2c(F)c(F)c(C)c(F)c2F)C1(C)C` (centres unmarked) [2,3,5,6-tetrafluoro-4-methylbenzyl 3-(1-propenyl)-2,2-dimethylcyclopropanecarboxylate], the vapor pressure was 7.7×10^−5 mm Hg. With `CC(C)=CC1C(C(=O)OCc2c(F)c(F)c(C)c(F)c2F)C1(C)C` (centres unmarked) [2,3,5,6-tetrafluoro-4-methylbenzyl 3-(2-methyl-1-propenyl)-2,2-dimethylcyclopropanecarboxylate] the vapor pressure was 3.1×10^−5 mm Hg.
